Entries after “also recorded” stand apart in the source; their conditions may differ.

The test system of this assay is B. infantis OpuA transporter. Put plainly: Osmostress protection growth assay, B. infantis opuA operon expressed in B. subtilis strain CAB2. It is filed as cell-based, Bacillus infantis. To be noted: for Osmostress protection (growth yield OD578): B. subtilis CAB2, SMM with 1.2 M NaCl, 1 mM osmostress protectant, 18 h, 37°C; for Substrate of / import via the B. infantis OpuA transporter: inferred from osmostress protection of B. subtilis CAB2, 1.2 M NaCl, 1 mM. How it is done: Bacterial strains were propagated in Luria–Bertani (LB) liquid media at 37°C or plated on LB agar plates. The B. infantis strain NRRL B-14911 was grown in MOPS-buffered basal medium [50 mM MOPS (pH 7.5), 50 mM MgSO4, 10 mM KCl, 10 mM CaCl2, 190 mM NH4Cl, 0.33 mM K2HPO4, 0.1 mM FeSO4] supplemented with 0.5% glucose (wt/vol) as a carbon source, 0.4% casamino acids (wt/vol), 5 ml l^-1 vitamin solution A (7.8 mg l^-1 biotin, 15.6 mg l^-1 nicotinic acid, and 15.6 mg l^-1 lipoic acid; pH adjusted to 7.5), and 5 ml l^-1 vitamin solution B (15.6 mg l^-1 pantothenic acid, 15.6 mg l^-1 pyridoxine-HCl, 15.6 mg l^-1 thiamine, 15.6 mg l^-1 p-aminobenzoic acid, and 0.32 mg l^-1 cobalamin) ([Gonzalez et al., 1997]). In main cultures used for osmostress protection assays, casamino acids were left out from the growth medium. The osmolarity of growth media was adjusted by the addition of NaCl from a 5 M NaCl stock solution. If desired, osmostress protectants were added to the medium of B. infantis NRRL B-14911 cultures at a final concentration of 1 mM. For growth experiments, liquid cultures of B. infantis NRRL B-14911 were grown in 100-ml Erlenmeyer flasks containing 20-ml of medium in a water bath set to 37°C with vigorous shaking (set to 220 rpm). Pre-cultures of strains were propagated to mid-exponential growth phase in basal medium (with 0.4% casamino acids) and were then used to inoculate fresh basal medium (without casamino acids) to an optical density at 578 nm (OD578) of 0.1. Liquid cultures of B. subtilis strains were grown at 37°C in Spizizen’s minimal medium (SMM) ([Harwood and Archibald, 1990]) with 0.5% glucose as carbon source and a solution of trace elements ([Harwood and Cutting, 1990]). L-Tryptophan (20 mg l^-1) and L-phenylalanine (18 mg l^-1) were added to SMM-derived growth media to satisfy the auxotrophic needs of the B. subtilis strain JH642 (trpC2 pheA1) ([Smith et al., 2014]) and its derivatives (Supplementary Table S1). Cultures (20-ml in 100-ml Erlenmeyer flasks) of B. subtilis strains were inoculated from exponentially growing pre-cultures in SMM to an OD578 of 0.1 and were incubated in a shaking water bath (set to 220 rpm) at 37°C. If needed, the osmolarity of the growth medium was increased by the addition of NaCl (from 5 M stock solutions prepared in H2O). Compatible solutes were filter sterilized and added to the growth medium of B. subtilis strains from 100 mM stock solutions to a final concentration of 1 mM unless otherwise explicitly stated in the text.
For the heterologous expression of the B. infantis NRRL B-14911 opuA operon (opuAA-opuAB-opuAC) in B. subtilis, a 3826-bp DNA fragment including the coding region of the opuA operon and the adjacent opuAR regulatory gene was generated by PCR using primers CA3-opuARA fwd and CA3-opuARA rev (Supplementary Table S2). […] Plasmid pX and its recombinant derivatives allow the stable insertion of genes into the B. subtilis chromosome as a single copy into the non-essential amyE locus via a double homologous recombination event via amyE sequences present on both the plasmid and the chromosome ([Kim et al., 1996]). Insertion of plasmid pX, or its recombinant derivatives, into the B. subtilis chromosome at the amyE gene can be selected for on agar plates containing the antibiotic chloramphenicol (final concentration: 5 μg ml^-1) and the subsequently scoring of the AmyE negative phenotype of the strains on LB plates containing 1% starch ([Harwood and Cutting, 1990]). Linearized plasmid DNA of pCA-opuARA was used to transform the B. subtilis chassis strain TMB118 [Δ(opuA::tet)3 Δ(opuC::spc)3 Δ(opuD::neo)2 Δ(opuB::erm)3] ([Teichmann et al., 2017]) in which only the proline-specific osmostress OpuE transporter ([von Blohn et al., 1997]) is present. The resulting strain was CAB2 (Supplementary Table S1). B. subtilis mutants carrying chromosomal deletions of the yvaV and opcR genes were constructed using long-flanking region PCR ([Kuwayama et al., 2002]).

Take `CN(C)CC(=O)O` [DMG, dimethlyglycine]: the “Osmostress protection (growth yield OD578)” value (from here on “Osmostress protection”) is “at a reduced level”. Turning to `C[S+](C)CCC(=O)[O-]` [DMSP, dimethylsulfoniopropionate], the “Osmostress protection” value was “protected” and the “Substrate of / import via the B. infantis OpuA transporter” value is “good substrate”. In the case of `C[N+](C)(C)CCO` [choline], the “Substrate of / import via the B. infantis OpuA transporter” value was “not imported; also recorded: not a substrate”.

As to `C[N+](C)(C)CC(=O)[O-]` [glycine betaine], the “Osmostress protection” value is on record as “protected” and the “Substrate of / import via the B. infantis OpuA transporter” value was “major substrates”.

In the case of `C[N+](C)(C)CCC(=O)[O-]` [homobetaine], the “Osmostress protection” value is given as “protected”.

As for `C[N+]1(C)CCC[C@H]1C(=O)[O-]` [proline betaine], the “Osmostress protection” value is listed as “protected” and the “Substrate of / import via the B. infantis OpuA transporter” value is recorded as “major substrates”.

For the origin of these results see paper PMC6207618, “The GbsR Family of Transcriptional Regulators: Functional Characterization of the OpuAR Repressor” (Frontiers in Microbiology, 2018).
